Where two headings read alike, the source gives them in different places.
Assays:
Assay type in all cases: in vivo
[1] = tested on: velvetleaf (Abutilon theophrasti, ABUTH); assay: Greenhouse test of herbicidal effectiveness (visual percent control) on velvetleaf
From the text: (§1) The following procedure was used for testing compositions of the Examples to determine herbicidal effectiveness, except where otherwise indicated.
Seeds of the plant species indicated were planted in 85 mm square pots in a soil mix which was previously steam sterilized and prefertilized with a 14-14-14 NPK slow release fertilizer at a rate of 3.6 kg/m3. The pots were placed in a greenhouse with sub-irrigation. About one week after emergence, seedlings were thinned as needed, including removal of any unhealthy or abnormal plants, to create a uniform series of test pots.
The plants were maintained for the duration of the test in the greenhouse where they received a minimum of 14 hours of light per day. […] Exposure temperatures were not precisely controlled but averaged about 27° C. during the day and about 18° C. during the night. Plants were sub-irrigated throughout the test to ensure adequate soil moisture levels.
(§2) Pots were assigned to different treatments in a randomized experimental design with 6 replications. A set of pots was left untreated as a reference against which effects of the treatments could later be evaluated.
Application of glyphosate compositions was made by spraying with a track sprayer fitted with a 9501E nozzle calibrated to deliver a spray volume of 93 liters per hectare (l/ha) at a pressure of 166 kilopascals (kPa). After treatment, pots were returned to the greenhouse until ready for evaluation.
Treatments were made using dilute aqueous compositions. These could be prepared as spray compositions directly from their ingredients, or by dilution with water of preformulated concentrate compositions.
For evaluation of herbicidal effectiveness, all plants in the test were examined by a single practiced technician, who recorded percent control, a visual measurement of the effectiveness of each treatment by comparison with untreated plants. […] The reported % control values represent the average for all replicates of each treatment.

[2] = tested on: Japanese millet (Echinochloa crus-galli var. frumentae, ECHCF); assay: Herbicidal effectiveness (percent control) on Japanese millet; conditions: comparison as worded in the text of the example
From the text: as §1
(§3) Seeds of the plant species indicated were planted in 85 mm square pots in a soil mix which was previously steam sterilized and prefertilized with a 14-14-14 NPK slow release fertilizer at a rate of 3.6 kg/m3. The pots were placed in a greenhouse with sub-irrigation. About one week after emergence, seedlings were thinned as needed, including removal of any unhealthy or abnormal plants, to create a uniform series of test pots. […]
as §2
(§4) Application of glyphosate compositions was made by spraying with a track sprayer fitted with a 9501E nozzle calibrated to deliver a spray volume of 93 liters per hectare (l/ha) at a pressure of 166 kilopascals (kPa). After treatment, pots were returned to the greenhouse until ready for evaluation. […]
(§5) For evaluation of herbicidal effectiveness, all plants in the test were examined by a single practiced technician, who recorded percent control, a visual measurement of the effectiveness of each treatment by comparison with untreated plants. […]

[3] = tested on: hemp sesbania (SEBEX); assay: Herbicidal effectiveness (percent control) on hemp sesbania; conditions: comparison as worded in the text of the example
From the text: as §1, §3, §2, §4, §5

[4] = tested on: morningglory (IPOSS); assay: Herbicidal effectiveness (percent control) on morningglory; conditions: comparison as worded in the text of the example
From the text: as §1, §3, §2, §4, §5

[5] = tested on: Yellow nutsedge (Cyperus esculentus, CYPES); assay: Herbicidal effectiveness (percent control) on yellow nutsedge; conditions: 0.03% oxalic acid in potassium glyphosate tank mixes
[6] = tested on: sicklepod (CASOB); assay: Herbicidal effectiveness (percent control) on sicklepod; conditions: comparison as worded in the text of the example
[7] = tested on: velvetleaf (ABUTH); assay: Rainfastness of Roundup UltraMax with oxalic acid on velvetleaf; conditions: glyphosate a.e.:oxalic acid 15:1; 0.25 inches of rain one or two hours after treatment, or no rain
Experimental: The rainfastedness of a Roundup UltraMax and oxalic acid, at a weight ratio of glyphosate a.e. to oxalic acid of 15:1, was evaluated. The Roundup UltraMax formulations were applied at rates of 300 and 500 g a.e./ha and evaluated with no rain, 0.25 inches of rain at one hour after treatment, and 0.25 inches of rain at two hours after treatment.

[8] = tested on: Indian Mustard (BRSJU); assay: Herbicidal effectiveness (percent control) on Indian mustard; conditions: comparison as worded in the text of the example
From the text: as §1, §3, §2, §4, §5

[9] = tested on: Prickly sida (SIDSP); assay: Herbicidal effectiveness (percent control) on prickly sida; conditions: comparison as worded in the text of the example
From the text: as §1, §3, §2, §4, §5

[10] = comparison as worded in the text of the example

CC(=O)O [Acetic acid]
herbicidal efficacy on velvetleaf (ABUTH), result in words [1, 10]: did not significantly effect the efficacy

C[N+](C)(C)Cc1ccccc1.[Cl-] [Benzyltrimethylammonium chloride]
herbicidal efficacy on velvetleaf (ABUTH), result in words [1, 10]: better efficacy than did the commercial Roundup UltraMax standard

C[N+](C)(C)Cc1ccccc1.[OH-] [Benzyltrimethylammonium hydroxide]
herbicidal efficacy on velvetleaf (ABUTH), result in words [1, 10]: better efficacy than did the commercial Roundup UltraMax standard

O=C(O)CC(O)(CC(=O)O)C(=O)O [Citric acid]
herbicidal efficacy on velvetleaf (ABUTH), result in words [1, 10]: did not significantly effect the efficacy | herbicidal efficacy on velvetleaf (ABUTH), result in words ([1]; comparison as worded in the text of the example, listed as citric acid): did not have significant impact on the efficacy

O=C([O-])C(=O)[O-].[K+].[K+] [Dipotassium oxalate, dipotassium oxalate]
herbicidal efficacy on ECHCF (barnyardgrass), result in words [2]: relatively ineffective for enhancing efficacy against barnyardgrass | herbicidal efficacy on velvetleaf (ABUTH), result in words [1, 10]: enhanced efficacy regardless of the glyphosate salt

O=C(O)[C@H](O)[C@@H](O)[C@H](O)[C@H](O)CO [Gluconic acid]
herbicidal efficacy on velvetleaf (ABUTH), result in words [1, 10]: did not significantly effect the efficacy

CC(O)C(=O)O (centres unmarked) [Lactic acid]
herbicidal efficacy on velvetleaf (ABUTH), result in words [1, 10]: did not significantly effect the efficacy

O=C(O)C(=O)O [Oxalic acid]
herbicidal efficacy on ECHCF (barnyardgrass), result in words [2]: did not significantly enhance glyphosate efficacy on barnyardgrass | herbicidal efficacy on hemp sesbania (SEBEX), result in words [3]: equal with the standards regardless of the presence of oxalic acid | herbicidal efficacy on morningglory (IPOSS), result in words [4]: equally effective in enhancing Roundup UltraMax efficacy on morningglory | herbicidal efficacy on yellow nutsedge (CYPES), result in words [5]: did not provide synergy on yellow nutsedge | herbicidal efficacy on sicklepod (CASOB), result in words [6]: did not give statistically significant efficacy enhancement on sicklepod | herbicidal efficacy on velvetleaf (ABUTH), result in words [1]: further increased efficacy | rainfastness on velvetleaf, result in words [7]: did not provide any rainfastness properties for Roundup UltraMax on velvetleaf | herbicidal efficacy on Indian mustard (BRSJU), result in words [8]: did not provide significant efficacy enhancement on Indian mustard | herbicidal efficacy on prickly sida (SIDSP), result in words [9]: gave efficacy enhancement

O=P(O)(O)O [Phosphoric acid]
herbicidal efficacy on velvetleaf (ABUTH), result in words [1, 10]: did not significantly effect the efficacy | herbicidal efficacy on velvetleaf (ABUTH), result in words ([1]; comparison as worded in the text of the example, listed as phosphoric acid): did not have significant impact on the efficacy

NC(=O)CCC(=O)O [Succinamic acid]
herbicidal efficacy on velvetleaf (ABUTH), result in words [1, 10]: antagonistic effect on glyphosate efficacy

O=C(O)CCC(=O)O [Succinic acid]
herbicidal efficacy on velvetleaf (ABUTH), result in words [1, 10]: did not significantly effect the efficacy

O=C(O)CCCCC(=O)O [adipic acid, Adipic acid]
herbicidal efficacy on velvetleaf (ABUTH), result in words [1, 10]: some increased efficacy

— patent publication US7723265B2, “Pesticide compositions containing oxalic acid” (Monsanto Technology, priority 2000, dated 2010)
